The numbers were not newly measured in patent US20090030403A1, “Methods and Systems for Attenuating the Tolerance Response to a Drug” (priority 2007, published 2009), which cites them from elsewhere.

One data set relates to sodium channels. The note with it: in vitro.
The subject of another data set is T-type Ca^2+ currents. Conditions: in vitro.
Data set [1] relates to GABA/benzodiazepine receptor ionophore complex. Conditions: in vitro.
The subject of data set [2] is cultured mouse spinal cord neurons. The note with it: 10-30 μg/mL.
For another data set, the system named is rat hippocampal slices. The note with it: 10-30 μg/mL.
For data set [3], the system named is dopaminergic and serotonergic neurotransmission. The note with it: in vivo microdialysis.
The subject of a further data set is partial seizures. Conditions: adjunctive therapy, partial seizures in adults.

For the molecule `NS(=O)(=O)Cc1noc2ccccc12` [Zonisamide, 1,2-benzisoxazole-3-methanesulfonamide], the “Effect on sodium channels” value with sodium channels is recorded as “blocks sodium channels”. Besides, in the data set with T-type Ca^2+ currents, the “Effect on T-type Ca2+ currents” value is recorded as “reduces voltage-dependent, transient inward currents”. Also, in [1], the “Binding to GABA/benzodiazepine receptor ionophore complex” value was “binds to the GABA/benzodiazepine receptor ionophore complex in an allosteric fashion” and the Chloride flux result is “does not produce changes in chloride flux”. The Synaptically-driven electrical activity in data set [2] is recorded as “suppresses synaptically-driven electrical activity”. Also, the “Postsynaptic GABA or glutamate responses” value in data set [2] (cultured mouse spinal cord neurons) is listed as “without affecting”. Further, in the data set with rat hippocampal slices, the “Neuronal or glial uptake of [3H]-GABA” value is given as “without affecting”. Moreover, the “Dopaminergic and serotonergic neurotransmission” value in [3] is “facilitates both dopaminergic and serotonergic neurotransmission”. Also, the “Effective doses in controlled trials” value with partial seizures was 100 to 600 mg/day. Under “in red blood cells”, the Half life is 105 h. For the same molecule, the Excretion entry (system removing the drug or its metabolites) was “Renal”. In addition, the Metabolism entry (system responsible for the drug's metabolism) is “Hepatic”. The “Carbonic anhydrase inhibiting activity” value in the data set on carbonic anhydrase is “weak”.
